The source of these data is patent US5110927A (The United States of America as represented by the …, priority 1987, dated 1992).

The target in this assay is α1-adrenoceptor (3H-prazosin binding sites). The assay can be described thus: displacement of 3H-prazosin from rat cerebral cortical (brain) membranes. Conditions: for -logIC50: 3H-prazosin displacement, rat cerebral cortical membranes; for affinity to alpha1-adrenoceptors (in words): discussion of Table 1. The procedure: IC50 values and apparent Ki values were determined as in Table 1.
Rat brain cortices were homogenized in approximately 30 volumes/wet weight of 50 mM Tris buffer, pH 7.4, containing 10 mM MgCl2 by use of a Polytron (setting 6 for 10 seconds). It should be noted that this buffer was used throughout the experimental procedures. The homogenate was centrifuged at 48,000×g for 10 minutes in a Sorvall RC-5B centrifuge. The resulting pellet was resuspended in buffer by use of a Polytron and recentrifuged. This process was repeated and the pellet was resuspended in approximately 200 volumes for affinity studies or 20 volumes for irreversibility experiments.
Specific binding was defined as the difference between total binding (measured in the absence of any ligand) and non-specific binding (measured in the presence of 10 microM phentolamine). Duplicate tubes were used for each condition. Reaction tubes were incubated for 30 minutes at 30° C., then diluted to 5 ml with ice cold buffer, and filtered under reduced pressure through Whatman GF/C glass fiber filters. The reaction tubes and filters were washed three additional times with buffer.

“Also recorded” adds a separate entry of the source.

Take `COc1cc2nc(N3CCN(C(=O)c4cccc(CCl)c4)CC3)nc(N)c2cc1OC` [Compound 40]: the “-logIC50” value was determined as 7.93.
Same read-out and setting: the same measure for `COc1cc2nc(N3CCN(C(=O)C(F)=Cc4ccccc4)CC3)nc(N)c2cc1OC` [Compound 20]: 7.89.
Regarding `COc1cc2nc(N3CCN(C(=O)c4ccc5ccccc5c4)CC3)nc(N)c2cc1OC` [Compound 24], the “-logIC50” value came out at 7.31 and the “affinity to alpha1-adrenoceptors (in words)” value (from here on “affinity”) is “decreased considerably”.
As to `COc1cc2nc(N3CCN(C(=O)/C=C/c4ccc(F)cc4)CC3)nc(N)c2cc1OC` [Compound 10], the “-logIC50” value is given as 7.92.
Take `COc1cc2nc(N3CCN(C(=O)C=Cc4ccc(Br)cc4)CC3)nc(N)c2cc1OC` [Compound 12]: the “-logIC50” value is listed as 7.10.
The same measure, in the same setting: the same measure for `COc1cc2nc(N3CCN(C(=S)Nc4cccc(N=C=S)c4)CC3)nc(N)c2cc1OC` [Compound 35]: 7.30.
`COc1cc2nc(N3CCN(C(=O)/C=C/C(=O)c4ccccc4)CC3)nc(N)c2cc1OC` [Compound 23]: the “-logIC50” value is 7.06 and the “affinity” value was “reduced affinity considerably”.
As to `COc1cc2nc(N3CCN(C(=O)C=Cc4c(F)c(F)c(F)c(F)c4F)CC3)nc(N)c2cc1OC` [Compound 14], the “-logIC50” value is 6.94.
On the same count and under the same terms, the same measure for `COc1cc2nc(N3CCN(C(=O)C#Cc4ccccc4)CC3)nc(N)c2cc1OC` [Compound 28]: 7.92; for `COc1ccc(/C=C/C(=O)N2CCN(c3nc(N)c4cc(OC)c(OC)cc4n3)CC2)cc1` [Compound 15]: 8.47; for `COc1cc2nc(N3CCN(C(=S)Nc4ccc(NC(=S)N5CC5)cc4)CC3)nc(N)c2cc1OC` [Compound 36]: 7.01.
The same measure, in the same setting: next, `COC(=O)/C=C/C=C/C(=O)N1CCN(c2nc(N)c3cc(OC)c(OC)cc3n2)CC1` [Compound 5]: 8.01.
Same read-out and setting: next, `COc1cc2nc(N3CCN(C(=S)Nc4ccc(N=C=S)cc4)CC3)nc(N)c2cc1OC` [Compound 34]: 7.18; `COc1cc2nc(N3CCN(C(=O)C=Cc4ccc(Cl)cc4)CC3)nc(N)c2cc1OC` [Compound 11]: 7.90.
In the case of `COc1cc2nc(N3CCN(C(=O)n4ccnc4)CC3)nc(N)c2cc1OC` [Compound 2], the “-logIC50” value stood at 7.97 and the “affinity” value is reported as “low affinity”.
Turning to `COc1cc2nc(N3CCN(C(=O)C(=Cc4ccccc4)N=[N+]=[N-])CC3)nc(N)c2cc1OC` [Compound 21], the “-logIC50” value stood at 8.06.
With `COc1cc2nc(N3CCN(C(=S)NC4CCCCC4)CC3)nc(N)c2cc1OC` [Compound 30], the “-logIC50” value stood at 8.27 and the “affinity” value is “decrease”.
For `COc1cc2nc(N3CCN(C(=S)Nc4c(F)c(F)c(F)c(F)c4F)CC3)nc(N)c2cc1OC` [Compound 32], the “-logIC50” value amounted to 7.80.
In the case of `COC(=O)/C=C/C(=O)Nc1ccc(/C=C/C(=O)N2CCN(c3nc(N)c4cc(OC)c(OC)cc4n3)CC2)cc1` [Compound 19], the “-logIC50” value worked out at 7.79.
With `COc1cc2nc(N3CCN(C(=O)[C@@H]4C[C@H]4c4ccccc4)CC3)nc(N)c2cc1OC` (relative stereo) [Compound 25], the “-logIC50” value is recorded as 9.29 and the “affinity” value is given as “affinity similar to that of the cinnamoyl compound No. 9”.
For the compound `COc1cc2nc(N3CCN(C(=S)Nc4ccc(N=[N+]=[N-])cc4)CC3)nc(N)c2cc1OC` [Compound 33], the “-logIC50” value came out at 7.70 and the “affinity” value was “decrease”.
For the compound `COc1cc2nc(N3CCN(C(=O)CCc4ccccc4)CC3)nc(N)c2cc1OC` [Compound 7], the “-logIC50” value came to 8.47 and the “affinity” value is “affinity is considerably decreased”.
With `COC(=O)C=Cc1ccc(NC(=S)N2CCN(c3nc(N)c4cc(OC)c(OC)cc4n3)CC2)cc1` [Compound 37], the “-logIC50” value came out at 7.43.
Still for that read-out and setting: the same measure for `COc1cc2nc(N3CCN(C(=O)C=Cc4ccc(N=C=S)cc4)CC3)nc(N)c2cc1OC` [Compound 17]: 6.99.
Regarding `COc1cc2nc(N3CCN(C(=S)Nc4ccccc4)CC3)nc(N)c2cc1OC` [Compound 29], the “affinity” value is on record as “much higher affinity for alpha1 -adrenoceptors than prazosin”.
Turning to `COc1cc2nc(N3CCN(C(=O)/C=C/c4ccc(NC(=O)CBr)cc4)CC3)nc(N)c2cc1OC` [Compound 18], the “-logIC50” value is given as 6.97.
As for `COc1cc2nc(N3CCN(C(=O)C(=Cc4ccccc4)c4ccccc4)CC3)nc(N)c2cc1OC` [Compound 22], the “-logIC50” value is on record as 7.51.
As for `COC(=O)/C=C/C(=O)N1CCN(c2nc(N)c3cc(OC)c(OC)cc3n2)CC1` [Compound 4], the “-logIC50” value came to 9.15.
With `COc1cc2nc(N3CCN(S(=O)(=O)c4ccc(C)cc4)CC3)nc(N)c2cc1OC` [Compound 43], the “-logIC50” value was 7.94 and the “affinity” value was “low affinity”.
As to `COc1cc2nc(N3CCN(C(=O)CBr)CC3)nc(N)c2cc1OC` [Compound 3], the “-logIC50” value came to 5.27 and the “affinity” value is on record as “low affinity”.
The like results for `COc1cc2nc(N3CCN(C(=O)C4CC5C=CC4C5)CC3)nc(N)c2cc1OC` (stereo not drawn) [Compound 46] were, in that order, 8.61 and “high affinity”.
`COc1cc2nc(N3CCN(C(=S)Nc4ccc(F)cc4)CC3)nc(N)c2cc1OC` [Compound 31]: the “-logIC50” value is given as 8.62.
The same measure, in the same setting: the same measure for `COC(=O)/C=C/C(=O)Nc1ccc(CCCCC(=O)N2CCN(c3nc(N)c4cc(OC)c(OC)cc4n3)CC2)cc1` [Compound 42]: 8.07.
On to `COc1cc2nc(N3CCN(C(=O)Nc4ccccc4)CC3)nc(N)c2cc1OC` [Compound 39], for which the “-logIC50” value is given as 7.56 and the “affinity” value is “considerably decreased the affinity”.
As for `COc1cc2nc(N3CCN(C(=O)C=Cc4cccc(F)c4)CC3)nc(N)c2cc1OC` [Compound 13], the “-logIC50” value stood at 7.68.
`COc1cc2nc(N3CCN(C(=O)/C=C/c4ccc(N=[N+]=[N-])cc4)CC3)nc(N)c2cc1OC` [Compound 16]: the “-logIC50” value is recorded as 9.49 and the “affinity” value was “single exception; also recorded: improved the affinity”.
`COc1cc2nc(N3CCN(C(=O)COc4ccccc4)CC3)nc(N)c2cc1OC` [Compound 8]: the “-logIC50” value turned out to be 7.90 and the “affinity” value is reported as “affinity is considerably decreased”.
Consider `COc1cc2nc(N3CCN(C(=S)Nc4cccc5ccccc45)CC3)nc(N)c2cc1OC` [Compound 38], for which the “-logIC50” value came to 7.41.
Consider `COc1cc2nc(N3CCN(C(=O)C4C(C=C(C)C)C4(C)C)CC3)nc(N)c2cc1OC` (stereo not drawn) [Compound 27], for which the “-logIC50” value is on record as 7.15 and the “affinity” value is reported as “very low affinity”.
In the case of `COc1cc2nc(N3CCN(C(=O)c4cc(Cl)nc(Cl)n4)CC3)nc(N)c2cc1OC` [Compound 45], the “-logIC50” value was 7.49 and the “affinity” value is given as “failed to yield an active compound”.
On to `COc1cc2nc(N3CCN(C(=O)[C@@H]4O[C@H]4c4ccccc4)CC3)nc(N)c2cc1OC` (relative stereo) [Compound 26], for which the “-logIC50” value worked out at 7.45 and the “affinity” value is given as “two orders of magnitude lower than that of cyclopropane”.
